In US9149038B2, “4-amino-6-(heterocyclic)picolinates and 6-amino-2-(heterocyclic)pyrimidine-4-carboxylates and their use as herbicides” (Dow AgroSciences LLC, priority 2013, dated 2015):
Like-named read-outs stand apart in the source and are kept apart here.

Key:
[1] = system: Key Grass and Sedge Weeds as well as Grass Crops; assay: Post-Emergent Test II: postemergent herbicidal activity, visual rating after 14 d (Table 8); assay type: in vivo; details: post-emergence, 336 h; for pest or weed control at 140 g/ha: 140 g ai/ha; for pest or weed control at 35 g/ha: 35 g ai/ha; for pest or weed control at 70 g/ha: 70 g ai/ha
Description: (§1) Herbicidal evaluations were made visually on a scale of 0 to 100 where 0 represents no activity and 100 represents complete plant death.
(§2) Seeds or nutlets of the desired test plant species were planted in Sun Gro Metro-Mix® 360 planting mixture, which typically has a pH of 6.0 to 6.8 and an organic matter content of about 30 percent, in plastic pots with a surface area of 64 square centimeters (cm^2). When required to ensure good germination and healthy plants, a fungicide treatment and/or other chemical or physical treatment was applied. The plants were grown for 7-21 d in a greenhouse with an approximate 15 h photoperiod which was maintained at about 23-29° C. during the day and 22-28° C. during the night. Nutrients and water were added on a regular basis and supplemental lighting was provided with overhead metal halide 1000-Watt lamps as necessary. The plants were employed for testing when they reached the first or second true leaf stage.
(§3) A weighed amount, determined by the highest rate to be tested, of each test compound was placed in a 25 mL glass vial and was dissolved in 4 mL of a 97:3 v/v mixture of acetone and DMSO to obtain concentrated stock solutions. […] The concentrated stock solutions obtained were diluted with 20 mL of an aqueous mixture containing acetone, water, isopropyl alcohol, DMSO, Atplus 411F crop oil concentrate, and Triton® X-155 surfactant in a 48.5:39:10:1.5:1.0:0.02 v/v ratio to obtain spray solutions containing the highest application rates. Additional application rates were obtained by serial dilution of 12 mL of the high rate solution into a solution containing 2 mL of a 97:3 v/v mixture of acetone and DMSO and 10 mL of an aqueous mixture containing acetone, water, isopropyl alcohol, DMSO, Atplus 411F crop oil concentrate, and Triton X-155 surfactant in a 48.5:39:10:1.5:1.0:0.02 v/v ratio to obtain ½×, ¼×, ⅛× and 1/16× rates of the high rate. Compound requirements are based upon a 12 mL application volume at a rate of 187 liters per hectare (L/ha). Formulated compounds were applied to the plant material with an overhead Mandel track sprayer equipped with 8002E nozzles calibrated to deliver 187 L/ha over an application area of 0.503 square meters at a spray height of 18 inches (43 cm) above the average plant canopy height. Control plants were sprayed in the same manner with the solvent blank.
(§4) The treated plants and control plants were placed in a greenhouse as described above and watered by subirrigation to prevent wash-off of the test compounds. After 14 d, the condition of the test plants as compared with that of the untreated plants was determined visually and scored on a scale of 0 to 100 percent where 0 corresponds to no injury and 100 corresponds to complete kill and are presented as indicated in Table 4.

[2] = system: Key Broadleaf Weed and Crop Species; assay: Post-Emergent Test II: postemergent herbicidal activity, visual rating after 14 d (Table 7); assay type: in vivo; details: post-emergence, 336 h; for pest or weed control at 140 g/ha: 140 g ai/ha; for pest or weed control at 35 g/ha: 35 g ai/ha; for pest or weed control at 70 g/ha: 70 g ai/ha
Description: as §1, §2, §3, §4

[3] = barnyardgrass (Echinochloa crus-galli), read-out: Visual Growth Reduction (%) 14 Days After Application ECHCG
[4] = giant foxtail (Setaria faberi), read-out: Visual Growth Reduction (%) 14 Days After Application SETFA
[5] = maize, corn (Zea mays), read-out: Visual Growth Reduction (%) 14 Days After Application ZEAMX
[6] = rice (Oryza sativa), read-out: Visual Growth Reduction (%) 14 Days After Application ORYSA
[7] = wheat, spring (Triticum aestivum), read-out: Visual Growth Reduction (%) 14 Days After Application TRZAS
[8] = yellow nutsedge (Cyperus esculentus), read-out: Visual Growth Reduction (%) 14 Days After Application CYPES
[9] = lambsquarters (Chenopodium album), read-out: Visual Growth Reduction (%) 14 Days After Application CHEAL
[10] = oilseed rape, canola (Brassica napus), read-out: Visual Growth Reduction (%) 14 Days After Application BRSNN
[11] = redroot pigweed (Amaranthus retroflexus), read-out: Visual Growth Reduction (%) 14 Days After Application AMARE
[12] = sunflower (Helianthus annuus), read-out: Visual Growth Reduction (%) 14 Days After Application HELAN
[13] = velvetleaf (Abutilon theophrasti), read-out: Visual Growth Reduction (%) 14 Days After Application ABUTH
[14] = wild poinsettia (Euphorbia heterophylla), read-out: Visual Growth Reduction (%) 14 Days After Application EPHHL

Structure (SMILES) | pest or weed control at 140 g/ha [1, 5] [%] | pest or weed control at 140 g/ha [1, 6] [%] | pest or weed control at 140 g/ha [1, 7] [%] | pest or weed control at 140 g/ha [1, 8] [%] | pest or weed control at 140 g/ha [2, 9] [%] | pest or weed control at 140 g/ha [2, 10] [%] | pest or weed control at 140 g/ha [2, 11] [%] | pest or weed control at 140 g/ha [2, 12] [%] | pest or weed control at 140 g/ha [2, 13] [%] | pest or weed control at 140 g/ha [2, 14] [%] | pest or weed control at 35 g/ha [1, 5] [%] | pest or weed control at 70 g/ha [1, 5] [%] | pest or weed control at 35 g/ha [1, 6] [%] | pest or weed control at 70 g/ha [1, 6] [%] | pest or weed control at 35 g/ha [1, 7] [%] | pest or weed control at 70 g/ha [1, 7] [%] | pest or weed control at 35 g/ha [1, 8] [%] | pest or weed control at 35 g/ha [2, 9] [%] | pest or weed control at 70 g/ha [2, 9] [%] | pest or weed control at 35 g/ha [2, 10] [%] | other results
COC(=O)c1nc(-c2cc(OC)c3c(c2)OCO3)c(F)c(N)c1Cl [Compound 14] | 0 to 29 | 0 to 29 | 0 to 29 | 0 to 29 | 75 to 84 | 0 to 29 | 0 to 29 | 85 to 94 | 0 to 29 | 0 to 29 |  |  |  |  |  |  |  |  |  |  | pest or weed control at 140 g/ha [1, 3]: 0 to 29%; pest or weed control at 140 g/ha [1, 4]: 0 to 29%
COC(=O)c1nc(-c2cc(F)c3c(c2)OC(F)(F)O3)c(F)c(N)c1Cl [Compound 17] | 60 to 74 | 0 to 29 | 0 to 29 | 0 to 29 | 0 to 29 | 0 to 29 | 0 to 29 | 0 to 29 | 0 to 29 | 0 to 29 | 0 to 29 | 0 to 29 | 0 to 29 | 0 to 29 | 0 to 29 | 0 to 29 | 0 to 29 | 0 to 29 | 0 to 29 | 0 to 29 | pest or weed control at 70 g/ha [1, 8]: 0 to 29%; pest or weed control at 70 g/ha [2, 10]: 0 to 29%; pest or weed control at 35 g/ha [2, 11]: 0 to 29%; pest or weed control at 70 g/ha [2, 11]: 0 to 29%; pest or weed control at 35 g/ha [2, 12]: 0 to 29%; pest or weed control at 70 g/ha [2, 12]: 0 to 29%; pest or weed control at 35 g/ha [2, 13]: 0 to 29%; pest or weed control at 70 g/ha [2, 13]: 0 to 29%; pest or weed control at 35 g/ha [2, 14]: 0 to 29%; pest or weed control at 70 g/ha [2, 14]: 0 to 29%
COC(=O)c1nc(-c2cc3c(cc2F)OC(F)(F)O3)c(F)c(N)c1OC [Compound 22, Methyl 4-amino-5-fluoro-3-methoxy-6-(2,2,6-trifluorobenzo[d][1,3]dioxol-5-yl)picolinate] | 75 to 84 | 0 to 29 | 60 to 74 | 95 to 100 | 0 to 29 | 0 to 29 | 0 to 29 | 85 to 94 | 0 to 29 | 45 to 59 | 0 to 29 | 60 to 74 | 0 to 29 | 0 to 29 | 0 to 29 | 45 to 59 | 95 to 100 | 0 to 29 | 0 to 29 | 0 to 29 | pest or weed control at 35 g/ha [1, 3]: 0 to 29%; pest or weed control at 70 g/ha [1, 3]: 0 to 29%; pest or weed control at 140 g/ha [1, 3]: 45 to 59%; pest or weed control at 70 g/ha [1, 8]: 95 to 100%; pest or weed control at 70 g/ha [2, 10]: 0 to 29%; pest or weed control at 35 g/ha [2, 11]: 0 to 29%; pest or weed control at 70 g/ha [2, 11]: 0 to 29%; pest or weed control at 35 g/ha [2, 12]: 85 to 94%; pest or weed control at 70 g/ha [2, 12]: 85 to 94%; pest or weed control at 35 g/ha [2, 13]: 0 to 29%; pest or weed control at 70 g/ha [2, 13]: 0 to 29%; pest or weed control at 35 g/ha [2, 14]: 30 to 44%; pest or weed control at 70 g/ha [2, 14]: 45 to 59%
COC(=O)c1nc(-c2ccc3c(c2Cl)OC(F)(F)O3)cc(N)c1Cl [Compound 33] | 75 to 84 | 0 to 29 | 0 to 29 | 95 to 100 | 75 to 84 | 60 to 74 | 95 to 100 | 85 to 94 | 75 to 84 | 60 to 74 | 60 to 74 | 60 to 74 | 0 to 29 | 0 to 29 | 0 to 29 | 0 to 29 | 95 to 100 | 75 to 84 | 75 to 84 | 60 to 74 | pest or weed control at 35 g/ha [1, 4]: 0 to 29%; pest or weed control at 70 g/ha [1, 4]: 0 to 29%; pest or weed control at 140 g/ha [1, 4]: 45 to 59%; pest or weed control at 70 g/ha [2, 10]: 60 to 74%; pest or weed control at 35 g/ha [2, 11]: 60 to 74%; pest or weed control at 70 g/ha [2, 11]: 75 to 84%; pest or weed control at 35 g/ha [2, 12]: 75 to 84%; pest or weed control at 70 g/ha [2, 12]: 85 to 94%; pest or weed control at 35 g/ha [2, 13]: 60 to 74%; pest or weed control at 70 g/ha [2, 13]: 75 to 84%; pest or weed control at 35 g/ha [2, 14]: 0 to 29%; pest or weed control at 70 g/ha [2, 14]: 60 to 74%
